From PubChem BioAssay AID248 (DTP/NCI, 2004)
“And” between values parts separate entries of the source, which are not always exact repeats. Identical values can stand only once. Inconclusive results and toxic doses are left out.

Tested on: L1210 leukemia ip in BDF1 mice, survival T/C
Assay: NCI In Vivo Anticancer Drug Screen. Data for tumor model L1210 Leukemia (intraperitoneal) in B6D2F1 (BDF1) mice
Conditions: endpoint: mean survival time, higher = longer survival
Outline: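 Transplanted-tumor mice were given test agent; controls received vehicle only. Survival readings from the two groups were divided (treated over control).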

[1] = dose: 100.0 mg/kg/injection, schedule: Q01DX009 (ip), vehicle: Klucel (hydroxypropylcellulose) (HPC)
[2] = dose: 100.0 mg/kg/injection, schedule: Q04DX003 (ip), vehicle: Klucel (hydroxypropylcellulose) (HPC)
[3] = dose: 200.0 mg/kg/injection, schedule: Q01DX009 (ip), vehicle: Klucel (hydroxypropylcellulose) (HPC)
[4] = dose: 200.0 mg/kg/injection, schedule: Q04DX003 (ip), vehicle: Klucel (hydroxypropylcellulose) (HPC)
[5] = dose: 400.0 mg/kg/injection, schedule: Q01DX009 (ip), vehicle: Klucel (hydroxypropylcellulose) (HPC)
[6] = dose: 400.0 mg/kg/injection, schedule: Q04DX003 (ip), vehicle: Klucel (hydroxypropylcellulose) (HPC)
[7] = dose: 100.0 mg/kg/injection, schedule: Q01DX001 (ip), vehicle: saline
[8] = dose: 100.0 mg/kg/injection, schedule: Q01DX009 (ip), vehicle: saline
[9] = dose: 100.0 mg/kg/injection, schedule: Q01DX001 (ip), vehicle: saline with Tween-80
[10] = dose: 100.0 mg/kg/injection, schedule: Q01DX009 (ip), vehicle: saline with Tween-80

SMILES: Fc1c(F)c(F)c(Oc2nc(-c3ccccc3)nc(-c3ccccc3)n2)c(F)c1F
- T/C (dose: 25.6 mg/kg/injection, schedule: Q04DX002 (ip), vehicle: saline with Tween-80): 92 % of control
- T/C (dose: 64.0 mg/kg/injection, schedule: Q04DX002 (ip), vehicle: saline with Tween-80): 106 % of control
- T/C (dose: 160.0 mg/kg/injection, schedule: Q04DX002 (ip), vehicle: saline with Tween-80): 100 % of control
- T/C (dose: 400.0 mg/kg/injection, schedule: Q04DX002 (ip), vehicle: saline with Tween-80): 95 % of control

SMILES: O=C(OCc1ccccc1)c1cc(OCc2ccccc2)ccc1OCc1ccccc1
- T/C [1]: 89 % of control
- T/C [2]: 93 % of control
- T/C [3]: 101 % of control
- T/C [4]: 95 % of control
- T/C [5]: 107 % of control
- T/C [6]: 98 % of control

SMILES: Cc1ccc(N2CCN(C(C)(C)C#N)CC2)cc1
- T/C [7]: 102 % of control
- T/C (dose: 200.0 mg/kg/injection, schedule: Q01DX001 (ip), vehicle: saline): 98 % of control

SMILES: O=S(=O)(c1ccc(O)c(F)c1)c1ccc(O)c(F)c1
- T/C (dose: 100.0 mg/kg/injection, schedule: Q04DX002 (ip), vehicle: gum acacia): 90 % of control
- T/C (dose: 200.0 mg/kg/injection, schedule: Q04DX002 (ip), vehicle: gum acacia): 101 % of control

SMILES: N#[N+]c1ccccc1-c1nc(N)nc(N)n1
- T/C (dose: 25.0 mg/kg/injection, schedule: Q01DX009 (ip), vehicle: saline): 110 % of control
- T/C (dose: 25.0 mg/kg/injection, schedule: Q04DX003 (ip), vehicle: saline): 113 % of control
- T/C (dose: 50.0 mg/kg/injection, schedule: Q01DX009 (ip), vehicle: saline): 100 % of control
- T/C (dose: 50.0 mg/kg/injection, schedule: Q04DX003 (ip), vehicle: saline): 103 % of control
- T/C [7]: 99 % of control
- T/C [8]: 92 % of control
- T/C (dose: 100.0 mg/kg/injection, schedule: Q04DX003 (ip), vehicle: saline): 96 % of control

SMILES: CC(=O)C1CCC2C3CCC4=CC(=O)CCC4(C)C3(C)C(=O)CC12C (centres undefined)
- T/C (dose: 50.0 mg/kg/injection, schedule: Q01DX001 (sc), vehicle: steriod suspending solution): 102 % of control and 105 % of control
- T/C (dose: 100.0 mg/kg/injection, schedule: Q01DX001 (sc), vehicle: steriod suspending solution): 102 % of control and 107 % of control
- T/C (dose: 200.0 mg/kg/injection, schedule: Q01DX001 (sc), vehicle: steriod suspending solution): 105 % of control
- T/C (dose: 400.0 mg/kg/injection, schedule: Q01DX001 (sc), vehicle: steriod suspending solution): 105 % of control and 96 % of control

SMILES: CCCCSP(=O)(SCCCC)c1ccccc1
- T/C (dose: 100.0 mg/kg/injection, schedule: Q01DX001 (ip), vehicle: Klucel (hydroxypropylcellulose) (HPC)): 100 % of control
- T/C (dose: 200.0 mg/kg/injection, schedule: Q01DX001 (ip), vehicle: Klucel (hydroxypropylcellulose) (HPC)): 102 % of control
- T/C (dose: 400.0 mg/kg/injection, schedule: Q01DX001 (ip), vehicle: Klucel (hydroxypropylcellulose) (HPC)): 95 % of control

SMILES: Nc1[nH]c(=O)ncc1-c1ccccc1Cl
- T/C (dose: 25.0 mg/kg/injection, schedule: Q01DX009 (ip), vehicle: saline with Tween-80): 88 % of control
- T/C (dose: 25.0 mg/kg/injection, schedule: Q04DX002 (ip), vehicle: saline with Tween-80): 92 % of control and 100 % of control
- T/C (dose: 25.0 mg/kg/injection, schedule: Q04DX003 (ip), vehicle: saline with Tween-80): 93 % of control
- T/C (dose: 50.0 mg/kg/injection, schedule: Q01DX001 (ip), vehicle: saline with Tween-80): 101 % of control
- T/C (dose: 50.0 mg/kg/injection, schedule: Q01DX009 (ip), vehicle: saline with Tween-80): 91 % of control
- T/C (dose: 50.0 mg/kg/injection, schedule: Q04DX002 (ip), vehicle: saline with Tween-80): 101 % of control and 103 % of control
- T/C (dose: 50.0 mg/kg/injection, schedule: Q04DX003 (ip), vehicle: saline with Tween-80): 92 % of control
- T/C [9]: 101 % of control
- T/C [10]: 94 % of control and 91 % of control
- T/C (dose: 100.0 mg/kg/injection, schedule: Q04DX003 (ip), vehicle: saline with Tween-80): 103 % of control
- T/C (dose: 200.0 mg/kg/injection, schedule: Q04DX003 (ip), vehicle: saline with Tween-80): 101 % of control

SMILES: C=CS(=O)Cc1ccccc1 (centres undefined)
- T/C (dose: 12.5 mg/kg/injection, schedule: Q04DX002 (ip), vehicle: saline): 112 % of control
- T/C (dose: 25.0 mg/kg/injection, schedule: Q04DX002 (ip), vehicle: saline): 94 % of control
- T/C (dose: 50.0 mg/kg/injection, schedule: Q04DX002 (ip), vehicle: saline): 98 % of control

SMILES: O=C1c2ccccc2C(=O)c2c(O)cccc21
- T/C [2]: 101 % of control
- T/C [4]: 89 % of control
- T/C [6]: 105 % of control

SMILES: C[n+]1ccc(NC(=O)c2ccc(NC(=O)c3ccc(C(=O)Nc4ccc(C(=O)Nc5cc[n+](C)cc5)cc4)c(N)c3)cc2)cc1
- T/C (dose: 8.1 mg/kg/injection, schedule: Q01DX Z (oral), vehicle: water): 97 % of control
- T/C (dose: 10.0 mg/kg/injection, schedule: Q01DX Z (ip), vehicle: water): 123 % of control
- T/C (dose: 12.5 mg/kg/injection, schedule: Q01DX Z (ip), vehicle: water): 124 % of control
- T/C (dose: 16.3 mg/kg/injection, schedule: Q01DX Z (oral), vehicle: water): 112 % of control
- T/C (dose: 20.0 mg/kg/injection, schedule: Q01DX Z (ip), vehicle: water): 162 % of control
- T/C (dose: 25.0 mg/kg/injection, schedule: Q01DX Z (ip), vehicle: water): 150 % of control
- T/C (dose: 32.5 mg/kg/injection, schedule: Q01DX Z (oral), vehicle: water): 101 % of control
- T/C (dose: 40.0 mg/kg/injection, schedule: Q01DX Z (ip), vehicle: water): 91 % of control
- T/C (dose: 50.0 mg/kg/injection, schedule: Q01DX Z (ip), vehicle: water): 120 % of control
- T/C (dose: 62.0 mg/kg/injection, schedule: Q01DX Z (ip), vehicle: carboxymethylcellulose (CMC)): 118 % of control
- T/C (dose: 65.0 mg/kg/injection, schedule: Q01DX Z (oral), vehicle: water): 105 % of control

SMILES: CC12CCC3C(CC=C4CC(O)CCC43C)C1C/C(=C\c1ccccc1)C2=O (centres undefined)
- T/C [9]: 93 % of control
- T/C (dose: 200.0 mg/kg/injection, schedule: Q01DX001 (ip), vehicle: saline with Tween-80): 93 % of control
- T/C (dose: 400.0 mg/kg/injection, schedule: Q01DX001 (ip), vehicle: saline with Tween-80): 92 % of control

SMILES: CN(CCO)N=Nc1ccccc1
- T/C (dose: 6.0 mg/kg/injection, schedule: Q01DX009 (ip), vehicle: other): 105 % of control
- T/C (dose: 12.0 mg/kg/injection, schedule: Q01DX009 (ip), vehicle: other): 96 % of control
- T/C (dose: 12.5 mg/kg/injection, schedule: Q01DX009 (ip), vehicle: other): 112 % of control
- T/C (dose: 18.0 mg/kg/injection, schedule: Q01DX009 (ip), vehicle: other): 88 % of control
- T/C (dose: 25.0 mg/kg/injection, schedule: Q01DX009 (ip), vehicle: other): 109 % of control

SMILES: O=C(NNc1ccccc1)Nc1ccccc1
- T/C [1]: 107 % of control

SMILES: CC1(N)CCOC1=O (centres undefined)
- T/C [8]: 93 % of control
- T/C (dose: 200.0 mg/kg/injection, schedule: Q01DX009 (ip), vehicle: saline): 93 % of control
- T/C (dose: 400.0 mg/kg/injection, schedule: Q01DX009 (ip), vehicle: saline): 93 % of control

SMILES: Cc1cccc(Cl)c1NC(=O)Nc1cc([N+](=O)[O-])ccc1O
- T/C (dose: 25.0 mg/kg/injection, schedule: Q01DX009 (ip), vehicle: Klucel (hydroxypropylcellulose) (HPC)): 91 % of control
- T/C (dose: 50.0 mg/kg/injection, schedule: Q01DX009 (ip), vehicle: Klucel (hydroxypropylcellulose) (HPC)): 91 % of control
- T/C [1]: 96 % of control and 87 % of control
- T/C [3]: 91 % of control
- T/C [5]: 88 % of control

SMILES: COc1cc(OC)c(N=Cc2ccc([N+](=O)[O-])s2)cc1Cl
- T/C [2]: 101 % of control
- T/C [4]: 101 % of control
- T/C [6]: 95 % of control

SMILES: COc1ccc(OC)c(NC(=O)Nc2ccc(Cl)cc2[N+](=O)[O-])c1
- T/C [10]: 91 % of control
- T/C (dose: 200.0 mg/kg/injection, schedule: Q01DX009 (ip), vehicle: saline with Tween-80): 97 % of control
- T/C (dose: 400.0 mg/kg/injection, schedule: Q01DX009 (ip), vehicle: saline with Tween-80): 89 % of control

SMILES: NC(=O)OCC#CCN1CCCC1
- T/C (dose: 5.0 mg/kg/injection, schedule: Q04DX003 (ip), vehicle: saline with Tween-80): 96 % of control
- T/C (dose: 10.0 mg/kg/injection, schedule: Q04DX003 (ip), vehicle: saline with Tween-80): 98 % of control
- T/C (dose: 20.0 mg/kg/injection, schedule: Q04DX003 (ip), vehicle: saline with Tween-80): 93 % of control

SMILES: C[CH2][Pb]([CH2]C)([CH2]C)[O]S(=O)(=O)c1ccc(C)cc1
- T/C (dose: 1.56 mg/kg/injection, schedule: Q01DX009 (ip), vehicle: saline with Tween-80): 95 % of control
- T/C (dose: 3.13 mg/kg/injection, schedule: Q01DX009 (ip), vehicle: saline with Tween-80): 96 % of control
